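Cells were grown in 96-well plates and exposed to each compound for 48 hours at five concentrations; endpoints were interpolated linearly between bracketing concentrations, or set to the highest concentration if not reached. GI50 is the concentration that inhibits growth by half. Definition used: TGI = concentration required for complete inhibition of growth.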

Test systems include 786-0 renal; U251 CNS; LOX IMVI melanoma; SN12C renal; SK-MEL-2 melanoma; HL-60(TB) leukemia; MDA-MB-231 breast; NCI/ADR-RES ovarian; NCI-H522 lung; OVCAR-3 ovarian.
Common to all, as to experiment: NCI tumour cell line growth inhibition, 48 h

Take `OCCCCC#Cc1ccccc1C#Cc1cccc(C(F)(F)F)c1`: the GI50 in the assay with 786-0 renal is 11.1 µM; in the assay with U251 CNS it was 17.2 µM; in the assay on LOX IMVI melanoma it was 17.5 µM; in the assay with SN12C renal, 18.9 µM; in the assay on SK-MEL-2 melanoma, 19.7 µM; in the assay on HL-60(TB) leukemia, 24.6 µM. Further, the GI50 was 18.3 µM in the assay with MDA-MB-231 breast, 15.5 µM in the assay on NCI/ADR-RES ovarian, 16.6 µM with NCI-H522 lung and 16.8 µM in the assay with OVCAR-3 ovarian. For the same compound, the TGI with 786-0 renal came to 34 µM; in the assay on U251 CNS it was 31.6 µM; with LOX IMVI melanoma, 31.8 µM; with SN12C renal, 33 µM; with SK-MEL-2 melanoma, 42.1 µM; in the assay with HL-60(TB) leukemia, 59.5 µM. Besides, the TGI was 33.4 µM in the assay on MDA-MB-231 breast, 31.1 µM with NCI/ADR-RES ovarian, 33.6 µM in the assay on NCI-H522 lung and 31.6 µM in the assay on OVCAR-3 ovarian.

As for `CCCCCCCCCCCCCCNC(=O)Nc1ccc(Cl)c(Cl)c1`, the GI50 was 2.79 µM in the assay with 786-0 renal; 3.15 µM in the assay on U251 CNS; 3.23 µM with LOX IMVI melanoma; 2.85 µM with SN12C renal; 1.93 µM in the assay with SK-MEL-2 melanoma; 2.59 µM in the assay with HL-60(TB) leukemia. In addition, the GI50 with MDA-MB-231 breast was 2.56 µM; with NCI/ADR-RES ovarian, 3.02 µM; in the assay with NCI-H522 lung, 1.66 µM; with OVCAR-3 ovarian it was 2.47 µM. Also, the TGI in the assay on 786-0 renal is greater than 23.4 µM; with U251 CNS, greater than 100 µM; in the assay with LOX IMVI melanoma it was greater than 100 µM; in the assay on SN12C renal, greater than 100 µM; with SK-MEL-2 melanoma it was 5.69 µM; in the assay with HL-60(TB) leukemia, greater than 40.1 µM. Besides, the TGI with MDA-MB-231 breast was 7.64 µM; with NCI/ADR-RES ovarian it was greater than 28.4 µM; with NCI-H522 lung, 5.75 µM; with OVCAR-3 ovarian it was 6.31 µM.

Regarding `COc1ccc(-c2nc3ccc(Cc4ccc5nc(-c6ccc(OC)cc6)[nH]c5c4)cc3[nH]2)cc1`, the GI50 was 0.0358 µM in the assay with 786-0 renal; 0.028 µM in the assay with U251 CNS; 0.0543 µM in the assay on LOX IMVI melanoma; 0.165 µM with SN12C renal; 0.0404 µM with SK-MEL-2 melanoma; less than 0.0145 µM in the assay on HL-60(TB) leukemia. The GI50 is 0.0476 µM with MDA-MB-231 breast, 0.0354 µM in the assay with NCI/ADR-RES ovarian, 0.0171 µM in the assay on NCI-H522 lung and 0.0217 µM in the assay with OVCAR-3 ovarian. For the same compound, the TGI came out at 0.381 µM with 786-0 renal; 0.162 µM in the assay on U251 CNS; 0.217 µM in the assay on LOX IMVI melanoma; 2.29 µM in the assay with SN12C renal; 1.75 µM with SK-MEL-2 melanoma; 0.079 µM with HL-60(TB) leukemia. Moreover, the TGI with MDA-MB-231 breast amounted to 0.586 µM; in the assay on NCI/ADR-RES ovarian, 1.84 µM; in the assay on NCI-H522 lung it was 0.0535 µM; with OVCAR-3 ovarian, 0.0503 µM.

Take `CC(C)[C@@H]1CC[C@]2(CO2)[C@@H]2C(=O)OCC(C(=O)O)=C[C@H]21`: the GI50 with 786-0 renal is 0.358 µM; with U251 CNS, 0.343 µM; in the assay with LOX IMVI melanoma, 0.331 µM; in the assay on SN12C renal it was 0.32 µM; in the assay on SK-MEL-2 melanoma, 0.208 µM; with HL-60(TB) leukemia it was 0.328 µM. The GI50 in the assay on MDA-MB-231 breast is 0.363 µM; with NCI/ADR-RES ovarian, 0.431 µM; in the assay on NCI-H522 lung it was 0.0462 µM; in the assay on OVCAR-3 ovarian, 0.47 µM. The TGI in the assay on 786-0 renal was greater than 100 µM; with U251 CNS it was greater than 100 µM; in the assay with LOX IMVI melanoma, 1.42 µM; with SN12C renal, greater than 20.1 µM; with SK-MEL-2 melanoma, 0.407 µM; in the assay on HL-60(TB) leukemia it was 1.7 µM. Also, the TGI with MDA-MB-231 breast is greater than 75.6 µM; with NCI/ADR-RES ovarian, greater than 100 µM; in the assay with NCI-H522 lung, 0.155 µM; in the assay on OVCAR-3 ovarian it was greater than 100 µM.

Regarding `COc1cc(OC)c(OC)cc1/C=C/c1nc2ccccc2s1`, the TGI with 786-0 renal, in the assay with U251 CNS, in the assay on LOX IMVI melanoma, in the assay with SN12C renal, with SK-MEL-2 melanoma and with HL-60(TB) leukemia was greater than 100 µM throughout. The TGI with MDA-MB-231 breast, in the assay with NCI/ADR-RES ovarian, in the assay with NCI-H522 lung and with OVCAR-3 ovarian was greater than 100 µM each time.

Consider `COCCN(Cc1ccc(F)cc1)c1ccc(CO)c(Cl)c1`, for which the GI50 with 786-0 renal was 23.1 µM; with U251 CNS, 6.33 µM; in the assay with LOX IMVI melanoma, 36.2 µM; in the assay with SN12C renal, 24.9 µM; in the assay on SK-MEL-2 melanoma it was 20.6 µM; in the assay on HL-60(TB) leukemia it was 27.4 µM. Further, the GI50 in the assay on MDA-MB-231 breast was 24.1 µM; in the assay on NCI/ADR-RES ovarian, 27.1 µM; in the assay on NCI-H522 lung, 39.1 µM; in the assay on OVCAR-3 ovarian, 3.54 µM. For the same compound, the TGI in the assay with 786-0 renal is greater than 82.3 µM; with U251 CNS, greater than 54.7 µM; in the assay on LOX IMVI melanoma, greater than 100 µM; with SN12C renal it was greater than 100 µM; in the assay with SK-MEL-2 melanoma, 59.5 µM; in the assay with HL-60(TB) leukemia it was greater than 75.4 µM. Further, the TGI in the assay with MDA-MB-231 breast is greater than 85.3 µM; with NCI/ADR-RES ovarian it was greater than 100 µM; in the assay on NCI-H522 lung, greater than 100 µM; with OVCAR-3 ovarian, 15.4 µM.

(Values after PubChem BioAssay (NCI).)
